Assay results from patent US11040981B2, “Pyrrolotriazine compounds and methods of inhibiting TAM kinases” (Syros Pharmaceuticals, Inc., priority 2017, dated 2021).

Experiments:
FLT3 = molecular target: T1, FLT3 (Homo sapiens, UniProt P36888); experiment: TR-FRET kinase activity assay, FLT3; format: biochemical; conditions: ATP at Km, 60 minutes
T1 sequence (P36888 27-993): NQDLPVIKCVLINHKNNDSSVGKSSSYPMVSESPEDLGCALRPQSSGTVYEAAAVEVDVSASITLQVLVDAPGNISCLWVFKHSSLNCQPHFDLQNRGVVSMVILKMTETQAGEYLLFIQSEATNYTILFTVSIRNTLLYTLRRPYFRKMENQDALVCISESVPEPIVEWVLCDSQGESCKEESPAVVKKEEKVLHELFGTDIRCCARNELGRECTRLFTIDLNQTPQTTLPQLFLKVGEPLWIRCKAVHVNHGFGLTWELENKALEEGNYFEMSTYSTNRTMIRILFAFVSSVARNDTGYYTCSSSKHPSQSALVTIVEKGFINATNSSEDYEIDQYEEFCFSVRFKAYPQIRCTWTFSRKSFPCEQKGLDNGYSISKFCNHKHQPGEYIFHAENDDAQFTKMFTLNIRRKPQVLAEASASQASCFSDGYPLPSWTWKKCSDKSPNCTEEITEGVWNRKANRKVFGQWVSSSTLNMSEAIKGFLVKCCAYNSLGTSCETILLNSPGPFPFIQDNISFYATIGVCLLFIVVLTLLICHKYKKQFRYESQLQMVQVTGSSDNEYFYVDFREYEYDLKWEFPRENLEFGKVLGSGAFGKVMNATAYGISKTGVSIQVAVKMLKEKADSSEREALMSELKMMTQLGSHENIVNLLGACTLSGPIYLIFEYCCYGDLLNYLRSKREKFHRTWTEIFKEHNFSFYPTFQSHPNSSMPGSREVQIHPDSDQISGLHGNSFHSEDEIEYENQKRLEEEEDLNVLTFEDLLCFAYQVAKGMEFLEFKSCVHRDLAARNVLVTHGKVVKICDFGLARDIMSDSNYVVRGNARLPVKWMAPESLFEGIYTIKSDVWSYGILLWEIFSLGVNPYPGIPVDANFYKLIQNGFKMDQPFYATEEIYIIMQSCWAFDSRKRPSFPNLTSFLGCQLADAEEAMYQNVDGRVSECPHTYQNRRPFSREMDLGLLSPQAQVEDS
Procedure, shortened: (§1)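 Enzyme + labelled peptide + cpd premixed; ATP at per-enzyme Km starts rxn. 60 min RT, HEPES pH 7.5/MgCl2/EGTA/Brij 35/DTT buffer. Stop 12.5 mM EDTA, Eu phospho-Ab 30 min dark, TR-FRET read → IC50.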

MERTK = molecular target: T2, MERTK (Homo sapiens, UniProt Q12866); experiment: TR-FRET kinase activity assay, MERTK; format: biochemical; conditions: for IC50: TR-FRET activity assay, ATP at Km, 60 minutes, read-out: Mer IC50; for FLT3/Mer ratio (FLT3 IC50/Mer IC50): ratio calculated as FLT3 IC50/Mer IC50
T2 sequence (Q12866 21-999): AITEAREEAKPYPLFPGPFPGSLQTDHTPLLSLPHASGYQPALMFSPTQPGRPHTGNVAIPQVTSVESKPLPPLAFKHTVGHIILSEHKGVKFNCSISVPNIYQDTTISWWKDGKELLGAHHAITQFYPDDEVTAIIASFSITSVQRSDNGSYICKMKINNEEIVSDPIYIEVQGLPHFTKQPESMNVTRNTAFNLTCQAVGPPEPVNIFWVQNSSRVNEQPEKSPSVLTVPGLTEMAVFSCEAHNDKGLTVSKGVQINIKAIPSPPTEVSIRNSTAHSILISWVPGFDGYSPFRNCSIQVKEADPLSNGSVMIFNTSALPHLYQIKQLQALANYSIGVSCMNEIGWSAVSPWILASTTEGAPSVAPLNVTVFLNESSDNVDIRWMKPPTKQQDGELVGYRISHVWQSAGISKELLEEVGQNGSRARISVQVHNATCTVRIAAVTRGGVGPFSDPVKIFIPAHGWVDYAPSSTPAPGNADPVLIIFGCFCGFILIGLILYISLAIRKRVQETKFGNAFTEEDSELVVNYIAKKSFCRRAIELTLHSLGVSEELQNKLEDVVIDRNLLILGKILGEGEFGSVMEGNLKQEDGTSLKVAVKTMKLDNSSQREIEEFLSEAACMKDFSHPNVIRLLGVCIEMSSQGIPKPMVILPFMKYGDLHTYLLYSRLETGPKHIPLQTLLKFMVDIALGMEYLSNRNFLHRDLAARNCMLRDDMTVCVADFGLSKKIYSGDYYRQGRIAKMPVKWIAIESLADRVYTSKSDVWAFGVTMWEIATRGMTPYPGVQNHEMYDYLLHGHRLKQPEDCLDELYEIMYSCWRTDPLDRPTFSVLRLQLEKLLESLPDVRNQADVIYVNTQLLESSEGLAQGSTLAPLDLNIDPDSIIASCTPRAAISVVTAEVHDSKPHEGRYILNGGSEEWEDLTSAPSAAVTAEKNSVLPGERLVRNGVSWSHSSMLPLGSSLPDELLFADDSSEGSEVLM
Procedure, shortened: as §1

Row | IC50 (FLT3) [nM] | IC50 (MERTK) [nM] | FLT3/Mer ratio (FLT3 IC50/Mer IC50) (MERTK) | SMILES
1 | 100 to 1000 | ≤ 100 | +++ (“+++” represents a ratio of >100) | COC[C@H](C)Nc1ncc2c(-c3ccc(CN4CCN(C)CC4)nc3)cc([C@H]3CC[C@H](O)CC3)n2n1 [Compound 565]
2 | 100 to 1000 | ≤ 100 | +++ (“+++” represents a ratio of >100) | COC[C@H](C)Nc1ncc2c(-c3ccnc(C4COC4)c3)cc([C@H]3CC[C@H](O)CC3)n2n1 [Compound 566]
3 | 1000 to 10000 | ≤ 100 | +++ (“+++” represents a ratio of >100) | CCS(=O)(=O)N1CC(CC#N)(n2cc(-c3cc([C@H]4CC[C@H](O)CC4)n4nc(N[C@@H](C)COC)ncc34)cn2)C1 [Compound 567]
4 | 100 to 1000 | ≤ 100 | +++ (“+++” represents a ratio of >100) | CC[C@]1(O)CC[C@H](c2cc(-c3ccnc(N4CCOCC4)c3)c3cnc(N[C@@H](C)COC)nn32)CC1 [Compound 568]
5 | > 10000 | ≤ 100 | +++ (“+++” represents a ratio of >100) | COC[C@H](C)Nc1ncc2c(-c3cncc([S@](C)(=N)=O)c3)cc([C@H]3CC[C@@H](O)CC3)n2n1 [Compound 572]
6 | > 10000 | ≤ 100 | +++ (“+++” represents a ratio of >100) | COC[C@H](C)Nc1ncc2c(-c3cncc([S@@](C)(=N)=O)c3)cc([C@H]3CC[C@H](O)CC3)n2n1 [Compound 573]
7 | 1000 to 10000 | ≤ 100 | +++ (“+++” represents a ratio of >100) | COC[C@H](C)Nc1ncc2c(-c3ccnc([S@@](C)(=N)=O)c3)cc([C@H]3CC[C@H](O)CC3)n2n1 [Compound 574]
8 | 1000 to 10000 | ≤ 100 | +++ (“+++” represents a ratio of >100) | COC[C@H](C)Nc1ncc2c(-c3ccnc([S@](C)(=N)=O)c3)cc([C@H]3CC[C@H](O)CC3)n2n1 [Compound 575]
9 | 1000 to 10000 | ≤ 100 | +++ (“+++” represents a ratio of >100) | COC[C@H](C)Nc1ncc2c([C@H]3CC[C@H](C(C)=O)CC3)cc([C@H]3CC[C@H](O)CC3)n2n1 [Compound 576]
10 | 1000 to 10000 | ≤ 100 | +++ (“+++” represents a ratio of >100) | COC[C@H](C)Nc1ncc2c([C@H]3CC[C@@H](C(=O)N4CCC(F)(F)CC4)CC3)cc([C@H]3CC[C@H](O)CC3)n2n1 [Compound 577]
11 | 1000 to 10000 | ≤ 100 | +++ (“+++” represents a ratio of >100) | COC[C@H](C)Nc1ncc2c([C@H]3CC[C@H](C(=O)N4CC5(COC5)C4)CC3)cc([C@H]3CC[C@H](O)CC3)n2n1 [Compound 578]
12 | 1000 to 10000 | ≤ 100 | +++ (“+++” represents a ratio of >100) | COC[C@H](C)Nc1ncc2c([C@H]3CC[C@@H](C(=O)N4CC5(COC5)C4)CC3)cc([C@H]3CC[C@H](O)CC3)n2n1 [Compound 579]
13 | ≤ 100 | ≤ 100 | +++ (“+++” represents a ratio of >100) | C[C@@H](CC(F)(F)F)Nc1ncc2c(-c3ccnc([S@](C)(=N)=O)c3)cc([C@H]3CC[C@H](O)CC3)n2n1 [Compound 580]
14 | ≤ 100 | ≤ 100 | +++ (“+++” represents a ratio of >100) | C[C@@H](CC(F)(F)F)Nc1ncc2c(-c3ccnc([S@@](C)(=N)=O)c3)cc([C@H]3CC[C@H](O)CC3)n2n1 [Compound 581]
15 | 1000 to 10000 | ≤ 100 | +++ (“+++” represents a ratio of >100) | C[C@@H](CC(F)(F)F)Nc1ncc2c(-c3cncc([S@](C)(=N)=O)c3)cc([C@H]3CC[C@H](O)CC3)n2n1 [Compound 582]
16 | 100 to 1000 | ≤ 100 | +++ (“+++” represents a ratio of >100) | C[C@@H](CC(F)(F)F)Nc1ncc2c(-c3cncc([S@@](C)(=N)=O)c3)cc([C@H]3CC[C@H](O)CC3)n2n1 [Compound 583]
17 | 1000 to 10000 | ≤ 100 | +++ (“+++” represents a ratio of >100) | COC[C@H](C)Nc1ncc2c(-c3ccnc(C(F)(F)F)c3)cc([C@H]3CC[C@H](O)CC3)n2n1 [Compound 584]
18 | 1000 to 10000 | ≤ 100 | +++ (“+++” represents a ratio of >100) | COC[C@H](C)Nc1ncc2c(-c3cnn(C(C)(C)C(=O)N4CCO[C@@H](C(C)(C)O)C4)c3)cc([C@H]3CC[C@H](O)CC3)n2n1 [Compound 585]
19 | 1000 to 10000 | ≤ 100 | +++ (“+++” represents a ratio of >100) | COC[C@H](C)Nc1ncc2c(-c3cnn(C(C)(C)C(=O)N4CCOC(C(C)(C)O)C4)c3)cc([C@H]3CC[C@H](O)CC3)n2n1 (stereo partly drawn) [Compound 586]
20 | 100 to 1000 | ≤ 100 | +++ (“+++” represents a ratio of >100) | COC[C@H](C)Nc1ncc2c(-c3cnn(C4COC4)c3)cc([C@@H]3CC[C@H](O)[C@H](C)C3)n2n1 [Compound 587]
21 | 100 to 1000 | ≤ 100 | +++ (“+++” represents a ratio of >100) | COC[C@H](C)Nc1ncc2c(-c3cnn(C4COC4)c3)cc([C@@H]3CC[C@@H](O)[C@H](C)C3)n2n1 [Compound 589]
22 | 1000 to 10000 | ≤ 100 | +++ (“+++” represents a ratio of >100) | COC[C@H](C)Nc1ncc2c(-c3cnn(C(C)(C)C(=O)N4C[C@@H](C)N[C@@H](C)C4)c3)cc([C@H]3CC[C@@H](O)CC3)n2n1 [Compound 591]
23 | 100 to 1000 | ≤ 100 | +++ (“+++” represents a ratio of >100) | C[C@@H](COC(F)F)Nc1ncc2c(-c3cnn(C(C)(C)C(=O)N4CCN(C)CC4)c3)cc([C@H]3CC[C@H](O)CC3)n2n1 [Compound 593]

Row | SMILES | IC50 (FLT3) [nM] | IC50 (MERTK) [nM] | FLT3/Mer ratio (FLT3 IC50/Mer IC50) (MERTK)
24 | COC[C@H](C)Nc1ncc2c(-c3cnn(C4COC4)c3)cc([C@@H]3CC[C@@H](O)C(C)(C)C3)n2n1 [Compound 570] | 100 to 1000 | ≤ 100 | ++ (“++” represents a ratio of between 10 and 100)
25 | COC[C@H](C)Nc1ncc2c(-c3cnn(C4COC4)c3)cc([C@@H]3CC[C@H](O)C(C)(C)C3)n2n1 [Compound 571] | 100 to 1000 | ≤ 100 | ++ (“++” represents a ratio of between 10 and 100)
26 | COC[C@H](C)Nc1ncc2c(-c3cnn(C4COC4)c3)cc([C@@H]3CC[C@H](O)[C@@H](C)C3)n2n1 [Compound 588] | 100 to 1000 | ≤ 100 | ++ (“++” represents a ratio of between 10 and 100)
